# Laboratory results as given in ChEMBL document CHEMBL1201862, “PubChem BioAssay data set” (2004).
#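 These data come from cells grown in 96-well plates and exposed to compound for 48 hours at five concentrations. At the GI50, growth is halved.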 The source made the active and inactive calls. No stated cut-off is given here; in the data, active = GI50 up to about 1.1 µM and inactive = higher.
# Legend:
# Experiment in all cases: NCI-60 cell line screen, 48 h
# HCC 2998 = system: HCC 2998
# HCT-116 = system: HCT-116
# HL-60 = system: HL-60
# HOP-92 = system: HOP-92
# IGROV-1 = system: IGROV-1
# K562 = system: K562
# MOLT-4 = system: MOLT-4
# OVCAR-3 = system: OVCAR-3
# OVCAR-4 = system: OVCAR-4
# SF-268 = system: SF-268
# SF-295 = system: SF-295
# SK-MEL-5 = system: SK-MEL-5
# SNB-75 = system: SNB-75
# SR = system: SR
# SW-620 = system: SW-620
# U-251 = system: U-251
# NCI-H460 = system: NCI-H460
# RPMI-8226 = system: RPMI-8226
Structure (SMILES),GI50 (HCC 2998),GI50 (HCT-116),GI50 (HL-60),GI50 (HOP-92),GI50 (IGROV-1),GI50 (K562),GI50 (MOLT-4),GI50 (OVCAR-3),GI50 (OVCAR-4),GI50 (SF-268),GI50 (SF-295),GI50 (SK-MEL-5),GI50 (SNB-75),GI50 (SR),GI50 (SW-620),GI50 (U-251),GI50 (NCI-H460),GI50 (RPMI-8226)
NCCCCNc1ccc2c(=O)[nH][nH]c(=O)c2c1,> 100 µM (inactive),> 100 µM (inactive),> 100 µM (inactive),> 100 µM (inactive),> 100 µM (inactive),> 100 µM (inactive),> 100 µM (inactive),> 100 µM (inactive),> 100 µM (inactive),> 100 µM (inactive),> 100 µM (inactive),> 100 µM (inactive),> 100 µM (inactive),> 100 µM (inactive),> 100 µM (inactive),> 100 µM (inactive),–,–
CCc1nc(N)nc(C(=O)NCCNC(=O)c2nc(N)nc(CC)c2C)c1C,> 100 µM (inactive),> 100 µM (inactive),> 100 µM (inactive),> 100 µM (inactive),> 100 µM (inactive),> 100 µM (inactive),> 100 µM (inactive),> 100 µM (inactive),> 100 µM (inactive),> 100 µM (inactive),> 100 µM (inactive),> 100 µM (inactive),> 100 µM (inactive),–,> 100 µM (inactive),> 100 µM (inactive),> 100 µM (inactive),> 100 µM (inactive)
COc1ccc2nc(NC(=O)C(=O)C(C#N)c3ccc([N+](=O)[O-])cc3)sc2c1 (stereo unspecified),> 100 µM (inactive),> 100 µM (inactive),–,> 100 µM (inactive),> 100 µM (inactive),72.1 µM (inactive),38.3 µM (inactive),> 100 µM (inactive),> 100 µM (inactive),> 100 µM (inactive),> 100 µM (inactive),> 100 µM (inactive),> 100 µM (inactive),–,> 100 µM (inactive),> 100 µM (inactive),> 100 µM (inactive),31.2 µM (inactive)
CC(CCC(=O)O)c1ccc(Br)cc1 (stereo unspecified),> 100 µM (inactive),> 100 µM (inactive),> 100 µM (inactive),–,> 100 µM (inactive),> 100 µM (inactive),> 100 µM (inactive),> 100 µM (inactive),> 100 µM (inactive),> 100 µM (inactive),> 100 µM (inactive),> 100 µM (inactive),> 100 µM (inactive),> 100 µM (inactive),> 100 µM (inactive),> 100 µM (inactive),> 100 µM (inactive),> 100 µM (inactive)
CC(C)C(Nc1c2ccccc2[n+](C)c2ccccc12)C(=O)O (stereo unspecified),> 100 µM (inactive),> 100 µM (inactive),99.5 µM (inactive),–,> 100 µM (inactive),> 100 µM (inactive),> 100 µM (inactive),> 100 µM (inactive),> 100 µM (inactive),> 100 µM (inactive),> 100 µM (inactive),> 100 µM (inactive),> 100 µM (inactive),> 100 µM (inactive),> 100 µM (inactive),> 100 µM (inactive),> 100 µM (inactive),> 100 µM (inactive)
NC(=S)N1N=C2c3ccccc3CC[C@H]2[C@@H]1c1cccs1,37.4 µM (inactive),28.8 µM (inactive),16.1 µM (inactive),68.7 µM (inactive),37.2 µM (inactive),7.69 µM (inactive),21.5 µM (inactive),36.2 µM (inactive),45.2 µM (inactive),40.6 µM (inactive),15.8 µM (inactive),–,–,4.68 µM (inactive),38.7 µM (inactive),35.3 µM (inactive),33 µM (inactive),37.9 µM (inactive)
CCOC(C[C@H](O[Si](C)(C)C(C)(C)C)[C@H]1COC(=S)S1)OCC,> 100 µM (inactive),39.2 µM (inactive),29 µM (inactive),–,–,41.3 µM (inactive),34.7 µM (inactive),59.4 µM (inactive),–,> 100 µM (inactive),37.7 µM (inactive),48.1 µM (inactive),–,41.7 µM (inactive),62.7 µM (inactive),40.7 µM (inactive),53.6 µM (inactive),32.1 µM (inactive)
O=C(CN1CCOCC1)Nc1nc(-c2ccc(Cl)cc2)cs1,26.8 µM (inactive),–,17.3 µM (inactive),53.7 µM (inactive),45.2 µM (inactive),19.4 µM (inactive),13.8 µM (inactive),22.3 µM (inactive),25.7 µM (inactive),25.1 µM (inactive),25.8 µM (inactive),–,19 µM (inactive),–,41.8 µM (inactive),24.2 µM (inactive),28.3 µM (inactive),13.6 µM (inactive)
CC(=O)c1ccccc1NC(=O)C(=O)C(C(=O)c1ccc2ccccc2c1)C1OC(=O)c2ccccc21 (stereo unspecified),4.72 µM (inactive),13.1 µM (inactive),9.91 µM (inactive),12.4 µM (inactive),16.1 µM (inactive),9.04 µM (inactive),3.67 µM (inactive),9.82 µM (inactive),17.2 µM (inactive),9.27 µM (inactive),–,11.4 µM (inactive),8.95 µM (inactive),–,7.83 µM (inactive),6.75 µM (inactive),5.43 µM (inactive),6.11 µM (inactive)
Cc1c2cc[n+](C)cc2c(C)c2c1[nH]c1ccc(Oc3ccccc3)cc12,3.18 µM (inactive),1.29 µM (inactive),–,0.935 µM (active),2.37 µM (inactive),0.665 µM (active),1.69 µM (inactive),1.14 µM (inactive),2.56 µM (inactive),1.03 µM (active),0.294 µM (active),1.01 µM (active),0.441 µM (active),–,0.537 µM (active),0.236 µM (active),–,2.64 µM (inactive)
CCCc1nc(N)nc(C(=O)Nc2cccc(C(F)(F)F)c2)c1CC,> 100 µM (inactive),> 100 µM (inactive),> 100 µM (inactive),> 100 µM (inactive),> 100 µM (inactive),> 100 µM (inactive),> 100 µM (inactive),> 100 µM (inactive),> 100 µM (inactive),> 100 µM (inactive),> 100 µM (inactive),> 100 µM (inactive),> 100 µM (inactive),–,> 100 µM (inactive),> 100 µM (inactive),> 100 µM (inactive),76.6 µM (inactive)
CCCCC(N)CSSCC(N)CCCC (stereo unspecified),19 µM (inactive),17.8 µM (inactive),16.4 µM (inactive),–,50.8 µM (inactive),19.4 µM (inactive),19.2 µM (inactive),20.8 µM (inactive),18.2 µM (inactive),26.9 µM (inactive),33.3 µM (inactive),22.9 µM (inactive),30.6 µM (inactive),17.5 µM (inactive),23.2 µM (inactive),–,36.7 µM (inactive),25.1 µM (inactive)
CCN(CC)c1oc(N(CC)CC)c(C(=O)Nc2ccccn2)c(=O)c1C(C)=O,–,> 100 µM (inactive),–,> 100 µM (inactive),> 100 µM (inactive),> 100 µM (inactive),> 100 µM (inactive),> 100 µM (inactive),–,90.8 µM (inactive),–,> 100 µM (inactive),> 100 µM (inactive),> 100 µM (inactive),> 100 µM (inactive),> 100 µM (inactive),> 100 µM (inactive),> 100 µM (inactive)
